# Laboratory results taken from patent US20220347206A1 (NPO Petrovax Pharm, LLC, priority 2021, published 2022).
# Values joined by “and” are separate entries in the source; they are usually repeats but may differ in a detail not shown here. Equal entries are not always repeated.
# Legend:
# [1] = test system: immature DC; details: in vitro; cited from earlier work
# [2] = test system: COVID-19; details: human, in vivo
# [3] = test system: T-cell; details: in vitro; cited from earlier work
# [4] = test system: leukocytes; details: after penetrating leukocytes by endocytosis; cited from earlier work
# [5] = test system: COVID-19; details: human, in vivo; remark: listed apart in the source
# [6] = test system: natural killer cell; details: in vitro; cited from earlier work
substance,measurement,setting,value
Azoximer bromide [AZB],Immature DC expansion,[1],increase immature DC expansion
same,"Absolute number of ARI cases, control group versus main (AZB) group",[2],more than 10 times higher
same,"Afflicted by ARI, number",[2],32
same,"Afflicted by ARI, percent",[2],13.1%
same,"Afflicted by acute respiratory illness (ARI), percent",[2],0.3%
same,Cases of ARI,[2],3 cases
same,Cases of COVID-19,[2],1 case
same,"Confirmed diagnosis of COVID-19 (PCR or antibody test), number",[2],2
same,"Confirmed diagnosis of COVID-19 (PCR or antibody test), percent",[2],0.3%
same,"Confirmed diagnosis of COVID-19 (PCR test data), number",[2],6
same,"Confirmed diagnosis of COVID-19 (PCR test data), percent",[2],2.4%
same,"Number of ARI cases, control group versus main (AZB) group",[2],more than 30 times
same,"Participants who developed pneumonia, percent (reported ARI cases)",[2],0%
same,T-cell proliferation,[3],induce T-cell proliferation
same,Intracellular hydrogen peroxide,[4],significant dose-dependent increases
same,Body temperature normalisation (≤37° C.),[5],all patients had a normal body temperature
same,"Day 15 OS score 1 (not hospitalized, no limitations on activities), %",[5],1.3% and 1 (1.3) %
same,"Day 15 OS score 2 (not hospitalized, limitation on activities), %",[5],35.1% and 27 (35.1) %
same,"Day 15 OS score 3 (hospitalized, not requiring supplemental oxygen), %",[5],45.5% and 35 (45.5) %
same,"Day 15 OS score 4 (hospitalized, requiring supplemental oxygen), %",[5],9 (11.7) %
same,"Day 15 OS score 5 (hospitalized, on noninvasive ventilation or high flow oxygen devices), %",[5],3.9% and 3 (3.9) %
same,"Day 15 OS score 6 (hospitalized, on invasive mechanical ventilation or extracorporeal membrane oxygenation), %",[5],2.6% and 2 (2.6) %
same,"Day 15 OS score 7 (death), %",[5],0 (0.0) %
same,"Day 15 Ordinal Scale score, mean",[5],2.90
same,"Day 28 Mortality: alive, %",[5],77 (100.0) %
same,"Day 28 Mortality: dead, %",[5],0 (0.0) %
same,"Duration of hospitalization, mean",[5],19.32 days and 19.13^g days and 19.32^h days
same,"Duration of hospitalization, median",[5],19.0 days and 19.0^c days
same,Improvement probability (NEWS),[5],> 80%
same,Mean (SD) NEWS,[5],1.08 (1.18)
same,Mean C-reactive protein (CRP),[5],13.21 mg/L
same,Mean oxygen saturation,[5],96.90% and 96.98%
same,Mean time to an OS score improving to ≤2,[5],15.9 days
same,Mean time to vanishing signs of pneumonia,[5],18.45 days
same,Median C-reactive protein (CRP),[5],8.5 mg/L
same,Number of patients requiring respiratory support (OS=4-6),[5],14 patients
same,"Patients with an OS score of 2 or 3, percent",[5],93.5%
same,"Pneumonia presence, number of patients",[5],18 patients
same,"Pneumonia presence, percent of patients",[5],23.4%
same,Probability of achieving a normal body temperature,[5],90%
same,Respiratory support requirement,[5],No patients required respiratory support
same,SpO2 value of the one patient below the reference range,[5],94%
same,Natural killer cell degranulation,[6],increase natural killer cell degranulation
